Reference: publication PMC9607644, “Glycoconjugation of Quinoline Derivatives Using the C-6 Position in Sugars as a Strategy for Improving the Selectivity and Cytotoxicity of Functionalized Compounds” (Molecules, 2022)
Marks after values point to notes of the source that are not given here.

Columns and labels:
HCT-116 cells = assay: MTT cytotoxicity assay, HCT-116; format: cell-based, human; conditions: for IC50: Homo sapiens, HCT-116; for IC50 / growth inhibitory activity in words, HCT-116: MTT
Description: (§1) An in vitro biological test package was performed for the obtained derivatives. […] The MTT test is a colorimetric method for detecting proliferating cells. It is based on the ability of the enzyme mitochondrial dehydrogenase to convert yellow tetrazole salt (MTT) into purple formazan. The amount of the product formed in the reaction, determined spectrophotometrically, is proportional to the number of living cells.
(§2) The in vitro cytotoxicity of the test compounds was determined by the MTT (3-[4,5–dimethylthiazol-2-yl]-2,5-diphenyltetrazolium bromide) test (Sigma-Aldrich, Taufkirchen, Germany) according to the manufacturer’s protocol. At the beginning, for each cell line were determined the optimal seeding densities to ensure exponential growth throughout the experimental period. The confluent layer of cells were trypsinized, collected, and suspended in a growth medium. […] Then, the culture medium was replaced with solutions of different concentrations of test compounds in a fresh medium. Stock solutions of test compounds were prepared in DMSO and diluted to final concentrations with appropriate volumes of the growth medium directly before the experiment. Cells suspended in a medium supplemented with 0.5% DMSO (the amount of DMSO necessary to dissolve the highest dose of the respective sample) were used as a control of the experiment. […] The compound-treated cells were incubated for a further 24–72 h. […] After this time, the MTT dye was carefully removed, and the acquired formazan crystals were dissolved by DMSO (Chempur, Piekary Śląskie, Poland). The proliferation was evaluated by measuring the formazan product’s absorbance at a wavelength of 570 nm with a microplate spectrophotometer (Epoch, BioTek, Winooski, VT, USA). All experiments were conducted in triplicate with four technical repeats for each tested concentration. Results were expressed as the percentage change in the viability of the test cells relative to the untreated control cells and calculated as the inhibitory concentration (IC50). […] The results are expressed as the average value ± standard deviation (SD).

MCF-7 cells = assay: MTT cytotoxicity assay, MCF-7; format: cell-based, human; conditions: for IC50: Homo sapiens, MCF7, incubation time 72 h; for IC50 / growth inhibitory activity in words, MCF-7: MTT; for Selectivity Index (SI) MCF-7: IC50 NHDF-Neo / IC50 MCF-7, 72 h incubation
Description: as §1, §2

NHDF-Neo cells = assay: MTT cytotoxicity assay, NHDF-Neo; format: cell-based; conditions: Homo sapiens, incubation time 72 h
Description: An in vitro biological test package was performed for the obtained derivatives. All newly synthesized compounds were assessed for their cytotoxic activity against human cell lines with increased GLUT expression: the colon cancer cell line (HCT-116) and the breast cancer cell line (MCF-7), as well as on normal human dermal fibroblasts cells (NHDF-Neo), using the MTT assay (3-(4,5-dimethylthiazol-2-yl)-2,5-diphenyltetrazolium bromide). The MTT test is a colorimetric method for detecting proliferating cells. It is based on the ability of the enzyme mitochondrial dehydrogenase to convert yellow tetrazole salt (MTT) into purple formazan. The amount of the product formed in the reaction, determined spectrophotometrically, is proportional to the number of living cells. The antiproliferative activity was expressed as the concentration that caused 50% inhibition of the growth of the population of cells treated with the test compounds relative to the control cells (inhibitory concentration activity—IC50). Table 1 and Table 2 summarize the IC50 values calculated for all tested compounds.
The in vitro cytotoxicity of the test compounds was determined by the MTT (3-[4,5–dimethylthiazol-2-yl]-2,5-diphenyltetrazolium bromide) test (Sigma-Aldrich, Taufkirchen, Germany) according to the manufacturer’s protocol. At the beginning, for each cell line were determined the optimal seeding densities to ensure exponential growth throughout the experimental period. The confluent layer of cells were trypsinized, collected, and suspended in a growth medium. The cell suspension were then seeded into 96-well plates at a density of 1 × 10^4 or 2 × 10^3 (HCT-116) or 5 × 10^3 (MCF-7, NHDF-Neo) per well and incubated for 24 h under standard conditions (5% CO2, 37 °C). Then, the culture medium was replaced with solutions of different concentrations of test compounds in a fresh medium. Stock solutions of test compounds were prepared in DMSO and diluted to final concentrations with appropriate volumes of the growth medium directly before the experiment. Cells suspended in a medium supplemented with 0.5% DMSO (the amount of DMSO necessary to dissolve the highest dose of the respective sample) were used as a control of the experiment. […] The compound-treated cells were incubated for a further 24–72 h. After that, the medium was removed and the MTT solution (50 µL, 0.5 mg/mL in PBS) was added into each well and incubated for another 3 h under standard conditions (5% CO2, 37 °C). After this time, the MTT dye was carefully removed, and the acquired formazan crystals were dissolved by DMSO (Chempur, Piekary Śląskie, Poland). The proliferation was evaluated by measuring the formazan product’s absorbance at a wavelength of 570 nm with a microplate spectrophotometer (Epoch, BioTek, Winooski, VT, USA). All experiments were conducted in triplicate with four technical repeats for each tested concentration. Results were expressed as the percentage change in the viability of the test cells relative to the untreated control cells and calculated as the inhibitory concentration (IC50). The IC50 values were defined as the drug concentration that was necessary to reduce cell proliferation to 50% of the untreated control and this parameter was calculated using CalcuSyn software (version 2.0, Biosoft, Cambridge, UK). The results are expressed as the average value ± standard deviation (SD).

[1] = IC50 NHDF-Neo / IC50 HCT-116, HCT-116 incubation time 24 h
[2] = IC50 NHDF-Neo / IC50 HCT-116, 72 h incubation

| Compound | IC50 (HCT-116 cells; incubation time 24 h) | IC50 (MCF-7 cells) | further results |
| --- | --- | --- | --- |
| CC(=O)OC1O[C@H](CN=[N+]=[N-])[C@@H](OC(C)=O)[C@H](OC(C)=O)[C@H]1OC(C)=O (stereo partly drawn) [Compound 5, 1,2,3,4-tetra-O-acetyl-6-azido-6-deoxy-D-glucopyranose] | > 800 µM | 201 ± 2.09 µM |  |
| [N-]=[N+]=NC[C@H]1OC(O)[C@H](O)[C@@H](O)[C@@H]1O (stereo partly drawn) [Compound 6, 6-azido-6-deoxy-D-glucopyranose] | > 800 µM | > 800 µM |  |
| [N-]=[N+]=NC[C@H]1OC(O)[C@H](O)[C@@H](O)[C@H]1O (stereo partly drawn) [Compound 11, 6-azido-6-deoxy-D-galactopyranose] | > 800 µM | > 800 µM |  |
| CC(=O)OC1O[C@H](CN=[N+]=[N-])[C@H](OC(C)=O)[C@H](OC(C)=O)[C@H]1OC(C)=O (stereo partly drawn) [Compound 12, 1,2,3,4-tetra-O-acetyl-6-azido-6-deoxy-D-galactopyranose] | > 800 µM | 641.2 ± 1.79 µM |  |
| C#CCNC(=O)[C@H]1O[C@@H](OC(C)=O)[C@H](OC(C)=O)[C@@H](OC(C)=O)[C@@H]1OC(C)=O [Compound 15, 1,2,3,4-tetra-O-acetyl-N-(prop-2-yn-1-yl)-β-D-glucopyranuronic acid amide] | 584 ± 9.39 µM | 714 ± 15.7 µM |  |
| C#CCNC(=O)[C@H]1OC(O)[C@H](O)[C@@H](O)[C@@H]1O (stereo partly drawn) [Compound 16, N-(prop-2-yn-1-yl)-D-glucopyranuronic acid amide] | > 800 µM | > 800 µM |  |
| [N-]=[N+]=NC[C@H]1O[C@H](O[C@H]2O[C@H](CN=[N+]=[N-])[C@@H](O)[C@H](O)[C@H]2O)[C@H](O)[C@@H](O)[C@@H]1O [Compound 20, 6,6′-diazido-6,6′-dideoxy-D-trehalose] | > 800 µM | > 800 µM | melting point: 118 °C |
| CC(=O)OC1O[C@H](Cn2cc(CO)nn2)[C@@H](OC(C)=O)[C@H](OC(C)=O)[C@H]1OC(C)=O (stereo partly drawn) [Compound 29] | > 800 µM | > 800 µM |  |
| OCc1cn(C[C@H]2OC(O)[C@H](O)[C@@H](O)[C@@H]2O)nn1 (stereo partly drawn) [Compound 30] | > 800 µM | > 800 µM |  |
| CC(=O)OC1O[C@H](Cn2cc(CO)nn2)[C@H](OC(C)=O)[C@H](OC(C)=O)[C@H]1OC(C)=O (stereo partly drawn) [Compound 31] | > 800 µM | > 800 µM |  |
| OCc1cn(C[C@H]2OC(O)[C@H](O)[C@@H](O)[C@H]2O)nn1 (stereo partly drawn) [Compound 32] | > 800 µM | > 800 µM |  |
| CC(=O)OC1O[C@H](C(=O)NCc2cn(CCO)nn2)[C@@H](OC(C)=O)[C@H](OC(C)=O)[C@H]1OC(C)=O (stereo partly drawn) [Compound 33] | > 800 µM | > 800 µM |  |
| O=C(NCc1cn(CCO)nn1)[C@H]1OC(O)[C@H](O)[C@@H](O)[C@@H]1O (stereo partly drawn) [Compound 34] | > 800 µM | > 800 µM |  |
| CC(=O)O[C@@H]1[C@@H](OC(C)=O)[C@@H](O[C@H]2O[C@H](Cn3cc(CO)nn3)[C@@H](OC(C)=O)[C@H](OC(C)=O)[C@H]2OC(C)=O)O[C@H](Cn2cc(CO)nn2)[C@H]1OC(C)=O [Compound 35] | > 800 µM | > 800 µM |  |
| OCc1cn(C[C@H]2O[C@H](O[C@H]3O[C@H](Cn4cc(CO)nn4)[C@@H](O)[C@H](O)[C@H]3O)[C@H](O)[C@@H](O)[C@@H]2O)nn1 [Compound 36] | > 800 µM | > 800 µM |  |
| CC(=O)OC1O[C@H](Cn2cc(COc3cccc4cccnc34)nn2)[C@H](OC(C)=O)[C@H](OC(C)=O)[C@H]1OC(C)=O (stereo partly drawn) [Compound B-1] | 75.1 ± 1.3 µM | 36.67 ± 0.03 µM | Selectivity Index (SI) HCT-116 (HCT-116 cells; [1]): 1.08 ^b; Selectivity Index (SI) MCF-7 (MCF-7 cells): 2.22; IC50 (NHDF-Neo cells): 81.42 ± 0.52 µM |
| OC1O[C@H](Cn2cc(COc3cccc4cccnc34)nn2)[C@H](O)[C@H](O)[C@H]1O (stereo partly drawn) [Compound B-2] | 293 ± 8 µM | 156 ± 7.4 µM | Selectivity Index (SI) HCT-116 (HCT-116 cells; [1]): 0.93 ^b; Selectivity Index (SI) MCF-7 (MCF-7 cells): 1.74; IC50 (NHDF-Neo cells): 271.6 ± 0.35 µM |
| CC(=O)O[C@@H]1O[C@H](C(=O)NCc2cn(CCOc3cccc4cccnc34)nn2)[C@@H](OC(C)=O)[C@H](OC(C)=O)[C@H]1OC(C)=O [Compound C-1] | 173 ± 6.68 µM | 224 ± 7.34 µM | IC50 (HCT-116 cells; incubation time 72 h): 81.5 ± 3.36 µM; Selectivity Index (SI) HCT-116 (HCT-116 cells; [2]): 2.64; growth inhibitory activity in words, HCT-116 (HCT-116 cells): did not show significant ability to inhibit cell growth; Selectivity Index (SI) MCF-7 (MCF-7 cells): 0.96; growth inhibitory activity in words, MCF-7 (MCF-7 cells): did not show significant ability to inhibit cell growth; IC50 (NHDF-Neo cells): 215 ± 3.1 µM |
| CC(=O)O[C@@H]1O[C@H](C(=O)NCc2cn(CCCOc3cccc4cccnc34)nn2)[C@@H](OC(C)=O)[C@H](OC(C)=O)[C@H]1OC(C)=O [Compound C-2] | 94.2 ± 1.48 µM | 157 ± 7.86 µM | IC50 (HCT-116 cells; incubation time 72 h): 62.35 ± 0.32 µM; Selectivity Index (SI) HCT-116 (HCT-116 cells; [2]): 5.11; growth inhibitory activity in words, HCT-116 (HCT-116 cells): did not show significant ability to inhibit cell growth; Selectivity Index (SI) MCF-7 (MCF-7 cells): 2.03; growth inhibitory activity in words, MCF-7 (MCF-7 cells): did not show significant ability to inhibit cell growth; IC50 (NHDF-Neo cells): 318.5 ± 3.09 µM |
| O=C(NCc1cn(CCCOc2cccc3cccnc23)nn1)[C@H]1OC(O)[C@H](O)[C@@H](O)[C@@H]1O (stereo partly drawn) [Compound C-3] | > 800 µM | 706.6 ± 2.87 µM | IC50 (HCT-116 cells; incubation time 72 h): 767 ± 2.39 µM; growth inhibitory activity in words, HCT-116 (HCT-116 cells): inactive; growth inhibitory activity in words, MCF-7 (MCF-7 cells): inactive; IC50 (NHDF-Neo cells): > 800 µM |
| CC(=O)O[C@@H]1[C@@H](OC(C)=O)[C@@H](O[C@H]2O[C@H](Cn3cc(COc4cccc5cccnc45)nn3)[C@@H](OC(C)=O)[C@H](OC(C)=O)[C@H]2OC(C)=O)O[C@H](Cn2cc(COc3cccc4cccnc34)nn2)[C@H]1OC(C)=O [Compound D-1] | 46.3 ± 3.12 µM | 30.7 ± 0.99 µM | IC50 (HCT-116 cells; incubation time 72 h): 26.3 ± 0.72 µM; Selectivity Index (SI) HCT-116 (HCT-116 cells; [2]): 1.31; Selectivity Index (SI) MCF-7 (MCF-7 cells): 1.12; IC50 (NHDF-Neo cells): 34.5 ± 0.39 µM |
